Values joined by “and” are separate entries in the source; they are usually repeats but may differ in a detail not shown here. Equal entries are not always repeated.
What was measured:
[1] = tested on: androgen-independent prostate PC-3 xenograft; experiment: PC-3 xenograft, (−)-gossypol and radiation (Example 20); format: in vivo, nude mice
Procedure: In this experiment, 60 male 5 to 6 week old NCI athymic NCr-nu/nu nude mice were inoculated in each flank with an injection of about 5×10^6 PC-3 cells. The best 40 xenograft recipients were used. Tumors averaged about 70 mm^3. (−)-Gossypol compounds were first dissolved in ethanol and diluted with sterile water within 5 min to a final ethanol concentration of 10% prior to each administration. Irradiated test animals were restrained, placed under the X-ray head, and covered with lead shields to ensure that the tumor area was exposed to radiation. All oral administrations of (−)-gossypol and 10% alcohol were given by gavage.
The 40 best xenograft mice were divided into experimental groups as follows: radiation only (Groups 1 and 2), 2 Gy administered 5 times/week for 3 weeks, and daily oral administration of 10% alcohol (as vehicle control); radiation plus gossypol (Groups 3 and 4), 2 Gy administered 5 times a week for 3 weeks, and 10 mg/kg of (−)-gossypol administered orally 5 times/week for 4 weeks (8 mice each Group); gossypol only (Groups 5 and 6), 10 mg/kg (−)-gossypol administered orally every day for 4 weeks (8 mice each Group); vehicle control (Groups 7 and 8), daily oral administration of 10% alcohol (8 mice each Group as vehicle control); large tumor animals (combination of Groups 9-12), tumors allowed to reach 500 mm^3.
Other remaining tumors in this group appear pale yellowish and soft as compared with that in control group with hard solid and reddish appearance, indicating tumor blood supply was inhibited.

[2] = tested on: PC-3 human prostate cancer bilateral xenografts; experiment: PC-3 xenograft, (−)-gossypol alone and with cisplatin (Table 11); format: in vivo, NCr-nu nude mouse; settings: Table 11
[3] = tested on: LnCap prostate cancer cells; experiment: MTT-based 5-day cell proliferation, LnCap; parameters: species or system human
From the text: The present invention is not limited to any mechanism. Indeed, a mechanistic understanding of the invention is unnecessary to practice (make and use) the present compositions and methods.

UM-SCC-1 = experiment: 6-day MTT cell growth, UM-SCC-1; format: cell-based, human; settings: read-out: IC50, inhibition of cell growth
Procedure: UM-SCC and human fibroblast cell lines were continuously exposed to varying concentrations of (−)-gossypol in 6-day MTT cell survival assays. Control wells contained media (DMEM) with vehicle alone. For each data point n=5.
Ten squamous cell carcinoma cell lines established at the University of Michigan (UM-SCC) and three human fibroblast lines were grown in Dulbecco's modified Eagle's medium (DMEM) supplemented with 10% fetal bovine serum. UM-SCC cell lines originated from the larynx (n=2; UM-SCC-12, -23), oral cavity/oropharynx (n=5; UM-SCC-1, -6, -14A, -74B, -81B), hypopharynx (n=1; UM-SCC-22A) and metastases from laryngeal cancers (n=2; UM-SCC-17B, -25). Human fibroblast cell lines originated from surgical specimens (fibroblast cell lines 2 and 3) and neonatal foreskin samples (fibroblast cell line 1).
Logarithmically growing cell lines were cultured, washed, counted, and plated at 5,000-15,000 cells per well in duplicate wells of 96-well plates and incubated in DMEM overnight. […] The MTT assay measures cell survival based on mitochondrial conversion of MTT from a soluble tetrazolium salt into an insoluble colored formazan precipitate, which is dissolved in dimethyl sulfoxide and quantitated by spectrophotometry. […] Percent absorbance relative to control was plotted as a linear function of drug concentration.

Cc1cc2c(C(C)C)c(O)c(O)c(C=O)c2c(O)c1-c1c(C)cc2c(C(C)C)c(O)c(O)c(C=O)c2c1O [(−)-gossypol]
tumors with complete regression ([1]; (−)-gossypol 10 mg/kg p.o. q.d.×5 4 weeks + X-ray 2 Gy q.d.×5 3 weeks): At least 10 out of 16
tumor growth inhibition compared with vehicle control, day 37 ([1]; Table 15, (−)-gossypol 10 mg/kg p.o. in combination with radiation 2 Gy per day, total 30 Gy): achieved 91.5% tumor growth
complete tumor regression, number of tumors ([1]; Table 15, combination of (−)-gossypol with radiation, out of 16 tumors): regression in 10 out of 16 tumors in
tumor growth inhibition compared with vehicle control ([2]; (−)-gossypol 7.5 mg/kg p.o. in combination with cisplatin 5 mg/kg i.v.): cisplatin at 5 mg/kg achieved 65%
weight loss during the treatment ([2]; combination regimen of (−)-gossypol 7.5 mg/kg p.o. with cisplatin 5 mg/kg i.v.): CDDP alone, and 20-23% weight
potency in inhibiting cancer cell growth relative to (+)-gossypol [3]: 5-10 times
potency in inhibiting cancer cell growth relative to racemic gossypol [3]: 2 times
IC50 (UM-SCC-1): 2000 nM and 1500 nM
